Test results: patent publication US12606798B2, “Methods and materials for hematoendothelial differentiation of human pluripotent stem cells under defined conditions” (WISCONSIN ALUMNI RESEARCH FOUNDATION, priority 2013, dated 2026)

Experiments:
Type in all cases: cell-based, human
H1 hESCs = assay: Hematopoietic differentiation of H1 hESCs in chemically defined conditions with TGFβ inhibitor, flow cytometry
Description: (§1) Human pluripotent stem cells were detached from vitronectin or matrigel when they reached 80% confluency using 1× TrypLE (Life Technologies) and plated at an optimized density ranging from 5000 cells/cm^2 to 15,000 cells/cm^2 depending on the cell line onto 6-well plates coated with 0.5 μg/cm^2 of ColIV (Sigma-Aldrich) or 0.5 μg/cm^2 Tenascin-C (Millipore) in E8 media supplemented with 10 μM Rho Kinase inhibitor (Tocris Y-27632). After 24 hours (day 0), the media was changed to IF9S media supplemented with 50 ng/ml BMP4 (Peprotech), 15 ng/ml Activin A (Peprotech), 50 ng/ml FGF2 (Miltenyi Biotech), 2 mM LiCl (Sigma), and on occasion, 1 μM Rho Kinase inhibitor to increase cell viability. On day 2, the media was changed to IF9S media supplemented with 50 ng/ml FGF2 and 50 ng/ml VEGF, and 10 μM SB-431542 (Tocris) where mentioned. On day 4, the media was changed to IF9S media supplemented with 50 ng/ml FGF2, VEGF, TPO, SCF, IL-6, and 10 ng/ml IL-3. On day 6, additional IF9S media supplemented with the same 6 factors were added to the cultures without aspirating the old media (Table 3 Table 3). IF9S (IMDM/F12 with 9 supplements) was made in-house with the following: 50% IMDM 50% F12 (Life Technologies) supplemented with 64 mg/L L-ascorbic Acid 2-Phosphate Mg2+ salt (Sigma-Aldrich), 40 ul/L monothioglycerol (Sigma-Aldrich), 8.4 μg/L additional sodium selenite (Sigma-Aldrich), 10 mg/L polyvinyl alcohol (Sigma-Alderich), 1× glutamax (Life Technologies), 1× non-essential amino acids (Life Technologies), 0.1× chemically defined lipid concentrate (Life Technologies), 10.6 mg/L Holo-Transferrin (Sigma-Aldrich), and 20 mg/L Insulin (Sigma-Aldrich) (Table 2). Differentiation was conducted in hypoxic condition from day 0 to day 5, and transferred to normoxic condition from day 6 to day 9 (FIG. 1). The 1× TrypLE was used to dissociate and collect cells for analysis. Flow Cytometry was conducted using the using a FACSCalibur flow cytometer and following antibodies: CD31-FITC (clone WM59), CD34-FITC (8G12), CD41a-FITC/APC (clone HIPS), CD43-FITC/PE/APC (clone 1G10), CD45-APC (clone HI30), CD73-FITC/PE (clone AD2), CD144-FITC/PE/AlexaFluor647 (clone 55-7H1), CD235a-FITC/PE/APC (clone GA-R2), KDR-PE/AlexaFluor647 (clone 89106), PDGFRα-PE (clone aR1) (BD Biosciences), TRA-1-85-FITC/PE (clone TRA-1-85), and APLNR-APC (clone 72133) (R&D Systems). Sorting was conducted on a FACS Aria, as described previously 46. The purity of isolated populations was 92-95%. Recent studies have shown that adding TGF-β inhibitors after mesoderm specification but before endothelial development increases definitive hematopoietic differentiation.

hESCs [1] = assay: hPSC hematoendothelial differentiation on ColIV vs TenC in chemically defined conditions, flow cytometry
Description: as §1, with “analysis.” for “analysis. Flow Cytometry was conducted using the using a FACSCalibur flow cytometer and following antibodies: CD31-FITC (clone WM59), CD34-FITC (8G12), CD41a-FITC/APC (clone HIPS), CD43-FITC/PE/APC (clone 1G10), CD45-APC (clone HI30), CD73-FITC/PE (clone AD2), CD144-FITC/PE/AlexaFluor647 (clone 55-7H1), CD235a-FITC/PE/APC (clone GA-R2), KDR-PE/AlexaFluor647 (clone 89106), PDGFRα-PE (clone aR1) (BD Biosciences), TRA-1-85-FITC/PE (clone TRA-1-85), and APLNR-APC (clone 72133) (R&D Systems). Sorting was conducted on a FACS Aria, as described previously 46. The purity of isolated populations was 92-95%. Recent studies have shown that adding TGF-β inhibitors after mesoderm specification but before endothelial development increases definitive hematopoietic differentiation.”
Flow Cytometry was conducted using the using a FACSCalibur flow cytometer and following antibodies: CD31-FITC (clone WM59), CD34-FITC (8G12), CD41a-FITC/APC (clone HIPS), CD43-FITC/PE/APC (clone 1G10), CD45-APC (clone HI30), CD73-FITC/PE (clone AD2), CD144-FITC/PE/AlexaFluor647 (clone 55-7H1), CD235a-FITC/PE/APC (clone GA-R2), KDR-PE/AlexaFluor647 (clone 89106), PDGFRα-PE (clone aR1) (BD Biosciences), TRA-1-85-FITC/PE (clone TRA-1-85), and APLNR-APC (clone 72133) (R&D Systems). Sorting was conducted on a FACS Aria, as described previously 46. The purity of isolated populations was 92-95%.

hESCs [2] = assay: Mesenchymo- (MB) and hemangioblast (HB) colony assay; conditions: day 2 and day 3 cultures; TenC compared with ColIV
Description: MB and HB were detected using serum-free CFC medium supplemented with FGF2 assay as previously described^11. Day 2 or 3 cultures were dissociated and prepared in a single-cell suspension using 1× TrypLE (Life Technologies) and 5,000 cells of the total culture were plated into the CFC media. MB and HB colonies were scored 12 days after plating the single-cell suspension.

hESCs [3] = assay: Hematopoietic CFC assay; conditions: day 8, TenC compared with ColIV
Description: Hematopoietic CFC were detected using serum-containing H4436 Methocult™ supplemented with human recombinant SCF, G-CSF, GM-CSF, IL-3, IL-6, and EPO (Stem Cell Technologies). Hematopoietic potential of AHPs was evaluated using serum-free SF H4236 methocult with added FGF2 (20 ng/ml), SCF (20 ng/mL), IL3 (10 ng/mL), IL6 (10 ng/mL), and EPO (2 U/mL) (Stem Cell Technologies) as previously described^6. 1000-10000 differentiated cells were plated into the CFC medium and the colonies were scored after 14 days of culture.

[4] = tested on: CD43+ cells collected from H1 hESCs; assay: T-cell differentiation of day 9 cultures on OP9-DLL4; conditions: CD43+ cells from day 9 cultures on the matrix, OP9-DLL4 coculture
Description: An OP9 cell line (OP9-DLL4) constitutively expressing human delta-like ligand 4 (DLL4) was established by our lab using lentivirus and was maintained similarly to OP9. After human pluripotent stem cells were differentiated for 9 days, the floating cells were collected, strained through a 70 μm cell strainer (BD Biosciences) and washed. Then, they were resuspended in T-cell differentiation media consisting of α-MEM (Gibco) supplemented with 20% FBS (Hyclone) supplemented with IL7 (5 ng/ml), Flt3L (5 ng/ml) and SCF ([…]). Then, they were plated on an OP9-DLL4 and cultured at 37° C. and 5% CO2. After 4 days, the cells were harvested using collagenase IV (Gibco) solution (1 mg/ml in DMEM/F12, Gibco) and 1× TrypLE (Invitrogen), and passaged onto a fresh layer of OP9-DLL4. After 3 days, the cells are passaged again. Subsequent passages are conducted every 7 days up to 4 weeks, after which the floating cells are collected for flow analysis and genomic DNA extraction for TCR rearrangement assay.

NC(=O)c1ccc(-c2nc(-c3ccc4c(c3)OCO4)c(-c3ccccn3)[nH]2)cc1 [SB-431542]
development of PDGFRalpha-positive mesoderm cells (H1 hESCs; 10 μM added from day 2 to day 4, read on day 3): significantly decreases | CD31+ differentiation (H1 hESCs; 10 μM added from day 2 to day 4, read on day 4): increases | CD43+ population (H1 hESCs; 10 μM added from day 2 to day 4, read on day 9): continues to increase | CD43+ hematopoietic progenitors (H1 hESCs; added from day 2 to day 4 only, day 8): significant increase | endothelial progenitors (H1 hESCs; added from day 2 to day 4 only, days 4 and 5): increases

TenC: human Tenascin C extracellular matrix protein (GenBank CAA55309.1; Millipore CC065) used as culture substrate
hematopoietic differentiation potential of CB hiPSCs (hESCs [1]; cord blood mononuclear cell-derived hiPSCs): restored hematopoietic differentiation potential of CB hiPSCs to the level seen with hESCs and FB hiPSCs | percentage of KDRhiAPLNR+PDGFRalphalo/− HVMPs cells (hESCs [1]; day 4, TenC compared with ColIV): consistently higher | population of total CD144+ cells (HEPs, non-HEPs, AHPs) (hESCs [1]; day 5, compared to cultures differentiated on ColIV): larger population | CD43+ hematopoietic progenitors expansion (hESCs [1]; day 8, TenC compared to ColIV): expanded significantly more | APLNR+PDGFRalpha+ cells (hESCs [1]; days 2 and 3, TenC compared with ColIV): significantly higher | MB and HB colonies (hESCs [2]): significantly higher | GEMNI-CFC potential of cultures (hESCs [3]): significantly greater | CFC potential of cultures (hESCs [3]; 3 experiments, p<0.01): higher CFC potential | capacity of CD43+ cells to generate CD5+CD7+ lymphoid progenitors [4]: had a capacity | progression toward CD4+CD8+ T lymphoid cells ([4]; week 3): observed only from CD43^+ cells generated on TenC
